# Reference: patent publication US20140314676A1, “METHODS OF TREATMENT WITH DEFERIPRONE” (APOTEX TECHNOLOGIES INC., priority 2011, published 2014)
# “Also recorded” adds a separate entry of the source.
# Tests used:
# porcine hearts [1] = experiment: Collagenase injection during reperfusion after 45 min LAD occlusion, MRI at day 2; format: in vivo, pig; conditions: 1000 mcg during reperfusion, day 2 post-AMI, one animal
# Experimental: (§1) 21 Yorkshire pigs (19-31 kg) were included in the study and 7-9 ml phosphate-buffered solution containing collagenase was injected using an over-the-wire angioplasty balloon catheter that was advanced to mid LAD after 2nd diagonal branch; balloon inflation was maintained for 8 min (ischemia). Six doses (250, 600, 800, 1200, 1600, and 3200 mcg) of collagenase were administered in equally divided groups; there was no mortality attributable to collagenase infusion. Animals were sacrificed at 24 hrs and hearts were explanted for histological analysis. […] After establishing this model, a pilot study was initiated to artificially induce hemorrhage in one animal subjected to a 45 min LAD occlusion, which is inherently non-hemorrhagic. Collagenase was injected immediately after balloon deflation i.e. during reperfusion at an intermediate dose of 1000 mcg. […] This was unlike the untreated 45 min infarcts studied. Currently, the causality between hemorrhage and MVO is unknown. The blood spilt in the interstitium might have compressed the microvasculature that was already vulnerable due to the initial ischemic insult; in other words, hemorrhage may have created the MVO.
# porcine hearts [2] = experiment: Artificially induced hemorrhage in porcine hearts by intracoronary injection of collagenase after 8 min ischemia; format: in vivo, Yorkshire pigs; conditions: for Epicardial and intramyocardial hemorrhage: sacrifice at 24 hrs
# Experimental: as §1
# [3] = tested on: porcine model of myocardial infarction; experiment: Porcine model of myocardial infarction (90 min LAD occlusion, reperfusion), pilot study monitored by MRI; format: in vivo; conditions: for Ejection fraction (EF) / Vasodilatory dysfunction (remote myocardium T2) / Inflammation or edema (T2) / Ventricular volume (end-diastolic and end-systolic volumes): pigs N=2, oral 100 mg/kg daily; for Inflammation or edema (T2): infarct zone; for Ventricular volume (end-diastolic and end-systolic volumes): up to 4 weeks; for Hemorrhage (from T2* image): pigs N=2, oral pre-loading then 100 mg/kg daily, MRI day 2 to week 4
# Experimental: Post-infarct remodeling is a complex process with various pathophysiological changes occurring simultaneously (19) whose inter-dependence has not been completely understood in vivo. An initial study was performed to assess evolution of: 1) edema (T2); 2) hemorrhage (T2*); 3) cardiac function; 4) infarct/MVO size and 5) vasodilatory function in a porcine model of myocardial infarction. The left anterior descending artery (LAD) was occluded for 90 min followed by reperfusion; this model consistently produced anteroseptal transmural infarcts characterized by MVO. Pattern of progression of edema, hemorrhage and infarct/MVO was apparent on T2-, T2*-maps and contrast-enhanced (CE) images as shown in a representative animal (FIG. 1). Post-infarct LV remodeling was monitored by observing the cumulative time course of quantitative MRI parameters (FIG. 2). […] Vasodilator function (or perfusion reserve) was evaluated with T2-based Blood-oxygen-level-dependent (BOLD) imaging using a pharmacological vasodilator (FIG. 4). […] The failure of remote vasodilatory function to regain control levels in the chronic phase of AMI potentially served as a predictor of subsequent adverse LV remodeling. […] Importantly, the evolution of MRI parameters was well correlated with histological features, similar to patterns seen in humans (24); this justified using a large animal model, e.g., porcine, for translation to the clinic. Two papers based on this work were published in MRM (32, 76).
# Excess tissue iron accumulation can be lethal as free iron is toxic in nature. It has been speculated that iron chelation may be beneficial in acute coronary syndromes and that early treatment can limit ischemia-reperfusion injury and also reduce infarct size (83, 84). However, the role of iron chelation in hemorrhagic infarction has not yet been explored. In the present example, the cardioprotective properties of the iron chelating agent deferiprone (DFP) were explored in a porcine model of myocardial infarction. Deferiprone offered several advantages in that it is a very small molecule, both hydrophilic and lipophilic and highly membrane permeable; it can readily enter mitochondria and may access intracellular labile iron. In a pilot study, DFP was administered (orally) to pigs (N=2) a few hours before a 90 min LAD occlusion (pre-loading), and treatment was continued with a daily dose of 100 mg/kg (85). Animals were then monitored with a comprehensive MRI exam from day 2 to week 4. […] The result shown in FIG. 14 compared to FIG. 1 show the neutralizing capacity of DFP.
# [4] = tested on: porcine model of myocardial infarction; experiment: Hemorrhagic myocardial infarction in porcine model, remodeling monitored by CMR (Example 3); format: in vivo
# Experimental: A quantitative study was done to investigate the effect of the deferiprone (DFP) on the hemorrhagic byproducts in tissue in a porcine model of myocardial infarction, and to monitor remodeling by cardiovascular magnetic resonance (CMR).
# The study involved two groups of animals that were subjected to a 90 min balloon occlusion of the left anterior descending artery (LAD) followed by reperfusion—untreated (N=2) and DFP treated (N=2). DFP was administered (orally) a few hours (about 1-2 hours) before the procedure (pre-loading) and treatment was continued with a daily dose of 100 mg/kg. Imaging was performed on a 3T MRI scanner (MR 750, GE Healthcare) pre-AMI (healthy), day 2, week 1, week 2 and week 4 post-AMI. Edema was evaluated by T2 quantification using a T2-prepared spiral sequence and hemorrhage was identified by T2* using a multi-echo gradient-echo acquisition. Infarct assessment was performed by delayed hyperenhancement (DHE) using an IR-GRE sequence.
# [5] = tested on: Langendorff heart preparation; conditions: constant deferiprone infusion of 50 μM, ex vivo; cited from earlier work
# [6] = 90 min LAD occlusion, listed as DFP, 100 mg/kg
# [7] = DFP treated N=2, 100 mg/kg daily
compound,measurement,setting,value
collagenase,Hemorrhage on T2*-weighted images,porcine hearts [1],Signal void
same,MVO on DHE images,porcine hearts [1],corresponded with an MVO
same,Hemorrhage on T2*-weighted images,porcine hearts [1]; listed as Collagenase,signal void
same,MVO on DHE images,porcine hearts [1]; listed as Collagenase,presence of MVO
same,Mortality attributable to collagenase infusion,"porcine hearts [2]; 250-3200 mcg intracoronary, 21 pigs",no mortality
same,Epicardial and intramyocardial hemorrhage,porcine hearts [2]; 800-1600 mcg intracoronary,mild-moderate
same,Epicardial and intramyocardial hemorrhage,porcine hearts [2]; 3200 mcg intracoronary,severe
same,Infarction (histology),porcine hearts [2]; intracoronary collagenase after 8 min ischemia,No infarction
same,Dose resulting in hemorrhage on explanted hearts,"porcine hearts [2]; intracoronary, after 8 min ischemic episode",> 800 µg
same,Epicardial and intramyocardial hemorrhage,porcine hearts [2]; up to 600 mcg intracoronary,none or mild focal
Cc1c(O)c(=O)ccn1C [deferiprone],Ejection fraction (EF),[3]; 90 min LAD occlusion,reduced gradually
same,Vasodilatory dysfunction (remote myocardium T2),[3]; 90 min LAD occlusion,impaired vasodilatory function only at day 2
same,Inflammation or edema (T2),"[3]; 90 min LAD occlusion, 100 mg/kg",substantially subsided at week 4; also recorded: substantially subsided beyond week 2
same,Inflammation or edema (T2),[3]; [6],substantially reduced by week 4
same,Ventricular volume (end-diastolic and end-systolic volumes),[3]; 90 min LAD occlusion,Relatively unchanged
same,Ventricular volume (end-diastolic and end-systolic volumes),[3]; [6],relatively unchanged
same,Ejection fraction (EF),[3]; [6],gradually depressed by week 4
same,Vasodilatory dysfunction (remote myocardium T2),[3]; [6],observed only at day 2
same,Hemorrhage (from T2* image),[3]; 90 min LAD occlusion,"observed only on day 2 but resolved by week 1; also recorded: only observed on day 2, which later resolved"
same,Hemorrhage (from T2* image),"[3]; 90 min LAD occlusion, listed as DFP",observed only on day 2 and by week 1 it had completely resolved
same,Side effects,"[3]; pigs, oral 100 mg/kg daily, throughout the 4 weeks of observation",No side effects
same,Microvascular obstruction (MVO),"[3]; representative animal, 90 min LAD occlusion, seen on day 2",partially resolved by week 1
same,Ejection fraction (EF),[4]; [7],depressed by week 4
same,End-diastolic and end-systolic volumes,[4]; [7],relatively unchanged
same,Inflammation and edema (T2),[4]; [7],substantially reduced by week 4
same,Microvascular obstruction (MVO),"[4]; DFP treated N=2, 100 mg/kg daily, seen on day 2",partially resolved by week 1
same,Hemorrhage (as indicated by T2* image),"[4]; DFP treated N=2, oral pre-loading then 100 mg/kg daily, 90 min LAD occlusion, listed as DFP",observed only on day 2 and by week 1 it had completely resolved
same,Free radical activity,[5],reduction
